Measured values from ChEMBL document CHEMBL1201862, “PubChem BioAssay data set” (2004).
The source made the active and inactive calls.

Tests used:
[1] = target: T1, Mannose-6-phosphate isomerase (Homo sapiens, UniProt P34949); assay: PMI enzyme inhibitors, confirmation, biochemical, fluorescence intensity (AID 1535)
T1 sequence (P34949 whole entry): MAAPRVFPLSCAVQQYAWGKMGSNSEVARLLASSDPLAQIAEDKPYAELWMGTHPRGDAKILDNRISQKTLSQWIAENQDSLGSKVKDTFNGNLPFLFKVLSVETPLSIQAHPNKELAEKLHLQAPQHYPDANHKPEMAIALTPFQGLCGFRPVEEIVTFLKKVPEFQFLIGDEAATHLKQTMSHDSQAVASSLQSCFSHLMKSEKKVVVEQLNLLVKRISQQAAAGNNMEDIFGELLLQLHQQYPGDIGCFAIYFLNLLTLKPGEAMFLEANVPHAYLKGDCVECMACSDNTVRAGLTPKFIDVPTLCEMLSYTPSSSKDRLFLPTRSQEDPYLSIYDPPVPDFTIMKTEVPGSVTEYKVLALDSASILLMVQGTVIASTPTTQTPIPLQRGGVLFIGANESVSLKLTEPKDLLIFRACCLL

Phosphomannomutase 2 = Phosphomannomutase 2 (Homo sapiens, UniProt O15305); assay: Counter screen SAR assay for PMM2 inhibitors via a fluorescence intensity assay. [Related pubchem assays (depositor defined):AID1545, AID1574]
Sequence of Phosphomannomutase 2 (O15305 whole entry): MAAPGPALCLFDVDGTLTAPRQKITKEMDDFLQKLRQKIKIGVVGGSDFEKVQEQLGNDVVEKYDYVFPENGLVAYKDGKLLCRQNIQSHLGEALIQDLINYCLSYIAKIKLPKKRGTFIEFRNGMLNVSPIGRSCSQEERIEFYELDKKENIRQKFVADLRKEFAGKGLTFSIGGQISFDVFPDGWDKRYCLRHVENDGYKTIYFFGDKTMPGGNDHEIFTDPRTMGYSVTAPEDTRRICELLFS

[2] = target: Glucose-6-phosphate 1-dehydrogenase (Homo sapiens, UniProt P11413); assay: human G6PD enzyme inhibitors, dose response, selectivity assay for P. falciparum G6PD inhibitor project, biochemical, fluorescence (AID 504792); format: functional
Sequence of Glucose-6-phosphate 1-dehydrogenase (P11413 whole entry): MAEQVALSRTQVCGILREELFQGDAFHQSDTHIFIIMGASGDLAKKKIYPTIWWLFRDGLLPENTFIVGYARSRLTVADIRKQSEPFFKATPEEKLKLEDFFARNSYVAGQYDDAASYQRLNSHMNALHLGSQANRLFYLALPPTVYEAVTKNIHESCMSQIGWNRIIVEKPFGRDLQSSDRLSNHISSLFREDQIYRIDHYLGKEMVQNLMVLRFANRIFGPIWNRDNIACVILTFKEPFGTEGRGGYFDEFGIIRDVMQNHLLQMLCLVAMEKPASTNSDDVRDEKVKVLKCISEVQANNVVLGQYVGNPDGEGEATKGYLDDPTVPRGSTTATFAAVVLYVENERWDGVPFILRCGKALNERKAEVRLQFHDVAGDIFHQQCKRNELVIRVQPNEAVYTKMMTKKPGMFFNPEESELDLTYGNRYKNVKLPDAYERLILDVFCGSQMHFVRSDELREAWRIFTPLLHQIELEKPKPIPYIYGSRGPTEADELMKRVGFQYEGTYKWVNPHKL

[3] = target: DNA dC->dU-editing enzyme APOBEC-3G (Homo sapiens, UniProt Q9HC16); assay: Dose Response confirmation of small molecule APOBEC3G DNA Deaminase Inhibitors via a fluorescence-based single-stranded DNA deaminase assay. [Related pubchem assays (depositor defined):AID493012, AID493028]; format: functional
Sequence of DNA dC->dU-editing enzyme APOBEC-3G (Q9HC16 whole entry): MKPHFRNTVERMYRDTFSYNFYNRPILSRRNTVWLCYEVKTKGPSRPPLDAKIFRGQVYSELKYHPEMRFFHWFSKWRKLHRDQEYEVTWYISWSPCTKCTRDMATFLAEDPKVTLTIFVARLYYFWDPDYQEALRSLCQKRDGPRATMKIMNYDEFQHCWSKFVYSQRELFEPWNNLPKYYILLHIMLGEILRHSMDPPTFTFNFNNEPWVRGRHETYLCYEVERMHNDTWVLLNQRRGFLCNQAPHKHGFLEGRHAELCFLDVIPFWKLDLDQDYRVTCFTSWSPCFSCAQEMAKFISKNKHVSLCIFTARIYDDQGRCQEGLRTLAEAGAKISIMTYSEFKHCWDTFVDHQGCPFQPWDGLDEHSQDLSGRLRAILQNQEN

[4] = target: Phosphoethanolamine/phosphocholine phosphatase (Homo sapiens, UniProt Q8TCT1); assay: SAR assay for compounds that inhibit PHOSPHO1. [Related pubchem assays (depositor defined):AID1545, AID1565, AID1574]
[5] = target: G-protein coupled receptor 55 (Homo sapiens, UniProt Q9Y2T6); assay: GPR55 antagonists, SAR follow-up, counter-screen for GPR35 antagonist project, imaging, image-based (AID 2397); format: functional
[6] = NIH-3T3 fibroblast cytotoxicity, dose response, cytotoxicity control, cell-based, fluorescence, Alamar Blue, secondary assay (AID 2327); format: functional;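 note: NIH-3T3 mouse fibroblasts cultured with fluconazole at 8 µg/mL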
[7] = inhibitors of intracellular T. cruzi replication, confirmation, NIH3T3 host cells, beta-gal luminescence (AID 2044); format: functional, cell-based;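 note: intracellular parasites grown in NIH/3T3 mouse fibroblasts as host cells; luminescent beta-galactosidase reporter signal from transgenic T. cruzi replicating inside host cells; inhibitors lower the luminescence signal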
HEK293 [8] = assay: cells; format: functional, cell-based; settings: Homo sapiens
[9] = microbe, parasite or virus in culture; format: functional; settings: Mycobacterium tuberculosis
[10] = target: Nucleotide-binding oligomerization domain-containing protein 2 (Homo sapiens, UniProt Q9HC29); assay: NOD2 signaling inhibitors, cell-based, luminescence, uHTS, HEK293 (AID 1566); format: functional
[11] = C. albicans growth with fluconazole, confirmation, fluorescence, retest (AID 2467); format: functional, cell-based
HEK293 [12] = assay: NOD2 signaling inhibitors in MDP-stimulated cells, cell-based, uHTS, luminescence (AID 2001); format: functional; settings: Homo sapiens
[13] = cytotoxicity toward NIH3T3 fibroblasts, dose response, counter-screen, cell-based, ATP luminescence, mouse fibroblasts (AID 2010); format: functional;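 note: cells exposed to compound for about 90 hours before reading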
HEK293 [14] = assay: cells; format: functional, cell-based; settings: Homo sapiens; remark: listed apart in the source
HEK293 [15] = assay: cells; format: functional, cell-based; settings: Homo sapiens; remark: listed apart in the source
HEK293 [16] = assay: NOD1 signaling inhibitors, primary screen, cell-based, luminescence, uHTS (AID 1578); format: functional; settings: Homo sapiens
INS1 = assay: beta cell apoptosis inhibitors, cytokine rescue, dose response, luminescence, retest (AID 449756); format: functional, cell-based; settings: Rattus norvegicus;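 note: cell death triggered by IL-1 beta plus TNF-alpha plus IFN-gamma mixture; protective hits raise ATP signal compared with cytokine alone wells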
[17] = target: Lysine-specific demethylase 4A (Homo sapiens, UniProt O75164); assay: JMJD2A histone demethylase inhibitors, dose response, selectivity assay for GASC-1 inhibitor project, biochemical, DELFIA europium, cherry-picked samples (AID 488840)
[18] = target: Lysine-specific demethylase 4C (Homo sapiens, UniProt Q9H3R0); assay: GASC-1 (JMJD2C) histone demethylase inhibitors, dose response, biochemical, DELFIA europium, cherry-picked samples (AID 488835); format: functional
Tumor necrosis factor = Tumor necrosis factor (Homo sapiens, UniProt P01375); assay: TNFa-triggered NF-kB activation inhibitors, SAR follow-up, cell-based, revised (AID 2337); format: functional
[19] = target: T2, Nucleotide-binding oligomerization domain-containing protein 1 (Homo sapiens, UniProt Q9Y239); assay: NOD1 signaling inhibitors, SAR follow-up, revised (AID 2333); format: functional
T2 sequence (Q9Y239 whole entry): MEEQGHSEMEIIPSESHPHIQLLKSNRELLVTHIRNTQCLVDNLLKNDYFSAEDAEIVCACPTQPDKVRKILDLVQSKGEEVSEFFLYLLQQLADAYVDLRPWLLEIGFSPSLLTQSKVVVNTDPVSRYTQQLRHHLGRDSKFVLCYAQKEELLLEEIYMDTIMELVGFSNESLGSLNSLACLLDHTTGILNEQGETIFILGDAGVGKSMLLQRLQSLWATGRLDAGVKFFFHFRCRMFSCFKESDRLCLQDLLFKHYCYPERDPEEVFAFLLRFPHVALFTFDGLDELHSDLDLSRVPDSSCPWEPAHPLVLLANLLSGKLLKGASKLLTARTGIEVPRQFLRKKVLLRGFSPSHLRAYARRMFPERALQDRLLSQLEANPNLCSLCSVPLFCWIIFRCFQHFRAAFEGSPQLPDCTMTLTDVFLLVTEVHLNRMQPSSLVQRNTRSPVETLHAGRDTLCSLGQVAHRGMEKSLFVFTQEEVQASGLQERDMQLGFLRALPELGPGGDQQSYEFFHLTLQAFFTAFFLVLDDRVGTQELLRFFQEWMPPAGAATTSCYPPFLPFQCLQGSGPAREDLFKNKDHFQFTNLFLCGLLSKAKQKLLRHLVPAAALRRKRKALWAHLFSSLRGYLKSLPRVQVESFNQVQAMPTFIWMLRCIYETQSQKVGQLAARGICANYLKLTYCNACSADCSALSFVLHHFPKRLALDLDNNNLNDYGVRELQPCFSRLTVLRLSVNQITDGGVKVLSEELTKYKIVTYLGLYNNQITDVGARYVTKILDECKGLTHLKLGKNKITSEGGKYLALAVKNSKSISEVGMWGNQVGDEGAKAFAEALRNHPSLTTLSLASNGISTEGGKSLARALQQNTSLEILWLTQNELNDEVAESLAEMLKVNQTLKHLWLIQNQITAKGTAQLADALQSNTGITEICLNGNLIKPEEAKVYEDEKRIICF

HEK293 [20] = assay: cells; settings: Homo sapiens
[21] = HepG2 cell cytotoxicity, dose response, cytotoxicity control for non-replicating M. tuberculosis project (AID 489018); format: functional; settings: Mycobacterium tuberculosis
cells = format: functional
[22] = Luminescence Cell-Based Secondary HTS screen to identify cytotoxic compounds of NIH3T3 cells. [Related pubchem assays: 1885, 1968 ]; format: functional
[23] = Luminescence Cell-Based Dose Confirmation HTS to Identify Inhibitors of Platelet Dense Granule Release. [Related pubchem assays: 1663 (Primary HTS), 1678 (Summary of Project)]; format: functional
[24] = target: Luciferin 4-monooxygenase (Photinus pyralis, UniProt P08659); assay: firefly luciferase enzyme inhibitors, dose response, biochemical, luminescence (AID 1891)
Sequence of Luciferin 4-monooxygenase (P08659 whole entry): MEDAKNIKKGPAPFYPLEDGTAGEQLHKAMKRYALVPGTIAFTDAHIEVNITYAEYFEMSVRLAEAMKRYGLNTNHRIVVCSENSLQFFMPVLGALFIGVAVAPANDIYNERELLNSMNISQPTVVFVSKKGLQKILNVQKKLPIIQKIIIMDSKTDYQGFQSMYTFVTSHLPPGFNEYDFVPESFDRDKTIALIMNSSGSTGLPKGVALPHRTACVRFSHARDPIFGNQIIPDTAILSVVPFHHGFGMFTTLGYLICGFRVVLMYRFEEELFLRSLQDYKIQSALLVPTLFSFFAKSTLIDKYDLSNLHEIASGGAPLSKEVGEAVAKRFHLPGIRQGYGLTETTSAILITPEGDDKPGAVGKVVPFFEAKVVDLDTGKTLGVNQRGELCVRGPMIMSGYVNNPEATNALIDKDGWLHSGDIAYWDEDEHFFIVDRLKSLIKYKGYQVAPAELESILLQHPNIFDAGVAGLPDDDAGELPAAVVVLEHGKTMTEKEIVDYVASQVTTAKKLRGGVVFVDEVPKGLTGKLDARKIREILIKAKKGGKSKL

[25] = inhibitors of Trypanosoma cruzi host-cell infection, confirmation, beta-gal luminescence, NIH3T3 host cells (AID 2630); format: functional, cell-based; settings: Mus musculus
[26] = Luminescence Cell-Based/Microorganism Confirmation at Dose of Inhibitors of Trypanosoma cruzi Infection. [Related pubchem assays: 1885, 1968 ]; format: functional
[27] = target: T3, Voltage-gated N-type calcium channel alpha-1B subunit/Amyloid beta A4 precursor protein-binding family A member 1 (Homo sapiens, UniProt Q00975+Q02410); assay: disruptors of Mint-PDZ/N-type channel peptide interaction – biochemical, HTRF, SAR follow-up (AID 2489); format: functional
T3 sequence (Q00975 whole entry): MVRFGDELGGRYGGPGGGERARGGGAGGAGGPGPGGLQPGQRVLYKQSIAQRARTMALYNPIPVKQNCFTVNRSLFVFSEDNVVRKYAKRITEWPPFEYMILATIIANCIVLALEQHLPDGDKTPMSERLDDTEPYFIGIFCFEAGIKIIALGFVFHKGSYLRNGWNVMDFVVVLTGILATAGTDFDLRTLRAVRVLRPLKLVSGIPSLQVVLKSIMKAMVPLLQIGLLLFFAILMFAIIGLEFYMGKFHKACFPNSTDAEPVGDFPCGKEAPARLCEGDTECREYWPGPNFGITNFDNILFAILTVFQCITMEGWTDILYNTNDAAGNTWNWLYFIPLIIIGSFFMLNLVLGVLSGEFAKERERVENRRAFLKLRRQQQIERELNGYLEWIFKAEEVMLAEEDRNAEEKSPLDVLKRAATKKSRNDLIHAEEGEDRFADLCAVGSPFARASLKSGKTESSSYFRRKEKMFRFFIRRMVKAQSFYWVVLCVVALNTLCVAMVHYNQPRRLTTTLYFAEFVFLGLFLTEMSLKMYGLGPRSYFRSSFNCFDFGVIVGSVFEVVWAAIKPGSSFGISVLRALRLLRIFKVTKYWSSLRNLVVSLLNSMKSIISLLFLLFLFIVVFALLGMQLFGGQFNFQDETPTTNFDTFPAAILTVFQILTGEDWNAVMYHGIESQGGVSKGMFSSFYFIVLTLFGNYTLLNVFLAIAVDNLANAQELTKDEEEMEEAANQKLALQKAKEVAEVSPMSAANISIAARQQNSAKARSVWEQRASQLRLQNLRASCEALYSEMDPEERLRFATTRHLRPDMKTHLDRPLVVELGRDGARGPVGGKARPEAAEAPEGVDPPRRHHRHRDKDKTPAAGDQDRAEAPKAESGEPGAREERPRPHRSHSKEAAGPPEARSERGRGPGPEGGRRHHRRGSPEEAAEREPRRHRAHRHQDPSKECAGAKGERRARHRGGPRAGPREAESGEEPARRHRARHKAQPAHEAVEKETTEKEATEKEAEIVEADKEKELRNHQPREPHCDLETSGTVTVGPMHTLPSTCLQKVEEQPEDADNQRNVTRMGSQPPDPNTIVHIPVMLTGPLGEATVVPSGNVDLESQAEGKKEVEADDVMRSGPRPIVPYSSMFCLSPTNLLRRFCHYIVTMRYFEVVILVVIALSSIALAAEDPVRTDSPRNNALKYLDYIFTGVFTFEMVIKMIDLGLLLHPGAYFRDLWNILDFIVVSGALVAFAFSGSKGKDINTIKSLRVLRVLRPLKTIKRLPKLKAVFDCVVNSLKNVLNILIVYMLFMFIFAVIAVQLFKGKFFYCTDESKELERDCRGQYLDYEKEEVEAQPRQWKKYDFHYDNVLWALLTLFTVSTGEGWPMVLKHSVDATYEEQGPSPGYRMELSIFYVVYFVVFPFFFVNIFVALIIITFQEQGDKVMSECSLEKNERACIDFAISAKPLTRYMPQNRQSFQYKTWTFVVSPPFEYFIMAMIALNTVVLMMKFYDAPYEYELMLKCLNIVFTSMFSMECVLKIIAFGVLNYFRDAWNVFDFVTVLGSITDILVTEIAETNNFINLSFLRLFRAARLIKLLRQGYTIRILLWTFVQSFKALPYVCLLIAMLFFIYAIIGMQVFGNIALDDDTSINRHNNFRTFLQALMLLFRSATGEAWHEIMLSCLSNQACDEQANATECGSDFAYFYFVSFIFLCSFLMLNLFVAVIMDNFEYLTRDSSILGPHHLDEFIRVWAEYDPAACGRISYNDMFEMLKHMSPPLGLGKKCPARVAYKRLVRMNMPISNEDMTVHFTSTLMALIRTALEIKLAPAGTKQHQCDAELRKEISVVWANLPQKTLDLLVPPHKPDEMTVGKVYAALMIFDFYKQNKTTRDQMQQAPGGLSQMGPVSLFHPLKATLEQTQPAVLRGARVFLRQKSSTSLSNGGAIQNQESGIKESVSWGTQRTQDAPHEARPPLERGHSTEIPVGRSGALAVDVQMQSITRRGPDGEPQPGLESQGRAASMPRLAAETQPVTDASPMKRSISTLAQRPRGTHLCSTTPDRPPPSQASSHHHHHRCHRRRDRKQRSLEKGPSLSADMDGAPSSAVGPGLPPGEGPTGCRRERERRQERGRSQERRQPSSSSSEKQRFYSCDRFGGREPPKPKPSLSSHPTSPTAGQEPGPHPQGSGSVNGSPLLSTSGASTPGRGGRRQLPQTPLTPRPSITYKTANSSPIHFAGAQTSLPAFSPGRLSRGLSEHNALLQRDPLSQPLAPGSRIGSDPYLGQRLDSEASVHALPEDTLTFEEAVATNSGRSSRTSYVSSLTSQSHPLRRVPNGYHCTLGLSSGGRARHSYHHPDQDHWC
T3 sequence (Q02410 whole entry): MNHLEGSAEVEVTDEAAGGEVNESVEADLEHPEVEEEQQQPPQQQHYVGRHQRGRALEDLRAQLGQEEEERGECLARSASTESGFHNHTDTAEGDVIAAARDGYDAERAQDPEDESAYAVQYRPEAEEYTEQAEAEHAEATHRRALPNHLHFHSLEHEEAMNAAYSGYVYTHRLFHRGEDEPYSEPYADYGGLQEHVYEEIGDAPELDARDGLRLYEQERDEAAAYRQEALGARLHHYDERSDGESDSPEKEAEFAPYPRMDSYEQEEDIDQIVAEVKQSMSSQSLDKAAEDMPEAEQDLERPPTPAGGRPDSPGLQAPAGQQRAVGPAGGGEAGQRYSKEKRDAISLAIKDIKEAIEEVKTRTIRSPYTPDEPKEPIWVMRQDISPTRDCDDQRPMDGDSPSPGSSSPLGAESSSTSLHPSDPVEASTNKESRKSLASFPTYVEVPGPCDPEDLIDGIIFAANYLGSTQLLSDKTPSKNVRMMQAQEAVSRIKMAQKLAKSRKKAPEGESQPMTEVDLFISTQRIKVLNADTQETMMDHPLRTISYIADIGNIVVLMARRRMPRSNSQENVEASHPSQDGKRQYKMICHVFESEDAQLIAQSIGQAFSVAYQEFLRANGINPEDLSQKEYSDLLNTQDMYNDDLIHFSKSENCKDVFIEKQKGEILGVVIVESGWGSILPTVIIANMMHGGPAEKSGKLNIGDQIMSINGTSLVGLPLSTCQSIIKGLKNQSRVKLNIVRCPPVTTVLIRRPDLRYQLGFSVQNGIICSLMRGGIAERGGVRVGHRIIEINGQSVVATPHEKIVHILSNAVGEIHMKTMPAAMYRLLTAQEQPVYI

[28] = target: T3, Voltage-gated N-type calcium channel alpha-1B subunit/Amyloid beta A4 precursor protein-binding family A member 1; assay: disruptors of Mint-PDZ/N-type channel peptide interaction – biochemical, HTRF, set 2, SAR follow-up (AID 434980); format: functional
SUMO E1/E2 = SUMO E1/E2 (Homo sapiens, UniProt P63279+Q9UBE0+Q9UBT2); assay: SAR analysis of SUMOylation using HTRF in an in-Vitro dose response assay. [Related pubchem assays (depositor defined):AID2006, AID2011, AID2018, AID2069, AID2658]; format: functional

With `O=c1c2ccccc2sn1-c1ccc(S(=O)(=O)N2CCCCC2)cc1` the IC50 [1] was > 50 µM (inactive), the IC50 (Phosphomannomutase 2) was > 100 µM (inactive) and the IC50 [2] was > 80 µM (inactive). The IC50 [3] was 19.4 µM (active) and the IC50 [4] was 38.9 µM (inactive).
With `Cc1ccc2c(c1)c(/C=C/c1cc[n+](C)cc1)c(C)n2C` the IC50 [5] was 0.462 µM (active), the EC50 [6] was > 160 µM (inactive) and the EC50 [7] was 0.294 µM (active). The IC50 (HEK293 [8]) was 18 µM (active), the CC50 [9] was > 40 µM (active) and the EC50 [10] was 4.42 µM (active). The EC50 [11] was 0.59 µM (active), the IC50 (HEK293 [12]) was 14.7 µM (inactive) and the EC50 [13] was > 60 µM (not active). The IC50 (HEK293 [14]) was > 20 µM (inactive), the IC50 (HEK293 [15]) was > 20 µM (inactive) and the EC50 (HEK293 [16]) was 17.3 µM (active). For the same molecule, the AC50 (INS1) was 3.46 µM (active).
With `O=C1NC(=O)C(=NNC(=O)C2COc3ccccc3O2)C(=O)N1` (stereo not given) the AC50 [17] was 11.7 µM (active) and the AC50 [18] was 2.66 µM (active).
In the case of `CCC(=O)N1c2ccc(S(=O)(=O)N3CCN(c4ccc(Cl)cc4)CC3)cc2CC1C` (stereo not given), the IC50 (Tumor necrosis factor) was 0.584 µM (active), the IC50 [19] was 1.01 µM (active) and the IC50 (HEK293 [20]) was 6.8 µM (active).
With `OC(COc1ccc2ccccc2c1Br)Cn1ccnc1` (stereo not given) the EC50 [7] was 0.501 µM (active), the CC50 [21] was > 20 µM (active) and the IC50 (cells) was 14.3 µM (active). For the same molecule, the EC50 [22] was > 195 µM (not active), the EC50 [23] was > 112 µM (not active) and the EC50 [24] was > 112 µM (not active). For the same molecule, the EC50 [13] was > 60 µM (not active), the EC50 [25] was 2.07 µM (active) and the EC50 [26] was 2.07 µM (active).
For `COc1ccc(CNC(=O)C(C)OC(=O)c2cc(-c3ccco3)nc3ccccc23)cc1` (stereo not given), the IC50 [27] was 17.5 µM (active), the IC50 [28] was 8.2 µM (active) and the IC50 (SUMO E1/E2) was 7.68 µM (active).
